This note sets out measurements from ChEMBL document CHEMBL1126716, “Synthesis and evaluation of the antitumor activity of 4,5-diamino-substituted 1,2-benzoquinones” (J Med Chem, 1993).

Assay [1] deals with EMT6. Nature of the assay: Tested for 50% inhibition against EMT-6 murine mammary carcinoma cell under hypoxia condition. The class given is functional, cell-based. The settings on record: Mus musculus.
In assay [2] the test system is EMT6. Nature of the assay: Tested for 50% inhibition against EMT-6 murine mammary carcinoma cell under normal oxygenated condition. The format is functional, cell-based. The settings on record: Mus musculus.
Assay [3] deals with EMT6. Nature of the assay: Tested for 90% inhibition against EMT-6 murine mammary carcinoma cell under hypoxia condition. The settings on record: Mus musculus. The format is functional.
For assay [4], the system named is EMT6. Briefly: Tested for 90% inhibition against EMT-6 murine mammary carcinoma cell under normal oxygenated condition. The format is functional. The settings on record: Mus musculus.
Assay [5] concerns Mus musculus. Briefly: Increase in life span of animals bearing L1210 leukemia after ip administration at a dose of 0.50 mg/kg. The class given is functional. The settings on record: route intraperitoneal.
In assay [6] the test system is Mus musculus. Briefly: Increase in life span of animals bearing L1210 leukemia after ip administration at a dose of 1.00 mg/kg. The format is functional. The settings on record: route intraperitoneal.
Assay [7] concerns Mus musculus. Briefly: Increase in life span of animals bearing L1210 leukemia after ip administration at a dose of 1.25 mg/kg. The format is functional. The settings on record: route intraperitoneal.
Assay [8] deals with Mus musculus. Nature of the assay: Increase in life span of animals bearing L1210 leukemia after ip administration at a dose of 1.50 mg/kg. The settings on record: route intraperitoneal. The format is functional.
For assay [9], the system named is Mus musculus. Nature of the assay: Increase in life span of animals bearing L1210 leukemia after ip administration at a dose of 2.00 mg/kg. The format is functional. The settings on record: route intraperitoneal.
The subject of assay [10] is Mus musculus. Nature of the assay: Increase in life span of animals bearing L1210 leukemia after ip administration at a dose of 2.50 mg/kg; Toxic. The format is functional, organism-based. Set-up: dose 2.5 mg/kg.
Assay [11] deals with Mus musculus. Nature of the assay: Survival days at a dose of 0.50 mg/kg after ip administration on days 1-5. The class given is functional. The settings on record: dose 0.5 mg/kg; route intraperitoneal.
Assay [12] has as its system Mus musculus. Nature of the assay: Survival days at a dose of 1.00 mg/kg after ip administration on days 1-5. The format is functional. The settings on record: route intraperitoneal.
In assay [13] the test system is Mus musculus. Briefly: Survival days at a dose of 1.25 mg/kg after ip administration on days 1-5. The format is functional. The settings on record: route intraperitoneal.
Assay [14] concerns Mus musculus. Briefly: Survival days at a dose of 1.50 mg/kg after ip administration on days 1-5. The settings on record: dose 1.5 mg/kg; route intraperitoneal. The format is functional.
Assay [15] deals with Mus musculus. Nature of the assay: Survival days at a dose of 2.00 mg/kg after ip administration on days 1-5. The class given is functional. The settings on record: route intraperitoneal.
Assay [16] has as its system Mus musculus. Nature of the assay: Survival days at a dose of 2.50 mg/kg after ip administration on days 1-5. The class given is functional. The settings on record: dose 2.5 mg/kg; route intraperitoneal.

Broadly, the IC50 is the concentration at which inhibition is half-maximal. A higher IC50 goes with a need for much substance. In general, IC90 refers to the concentration needed for an effect of 90%. In the case of `O=C1C=C(N2CCCC2)C(N2CCCC2)=CC1=O`, the IC50 in the assay with EMT6 [1] and in the assay on EMT6 [2] was above 500 µM each time. Besides, the IC90 in the assay on EMT6 [3] and with EMT6 [4] was above 500 µM each time.
As to `COC1=CC(=O)C(O)=C/C1=N\CCCl`, the figures for the concentration for half-maximal inhibition (IC50) with EMT6 [1] and in the assay on EMT6 [2] were 110 µM and 125 µM, respectively. For the same molecule, the IC90 was determined as 190 µM in the assay with EMT6 [3] and 455 µM in the assay on EMT6 [4].
`O=C1C=C(N2CCC2)C(N2CCC2)=CC1=O`: the IC50 in the assay with EMT6 [1] is 400 µM; with EMT6 [2] it was 500 µM. The IC90 in the assay on EMT6 [3] and in the assay on EMT6 [4] was above 500 µM each time.
In general, ILS refers to how much longer treated animals lived than controls. With `O=C1C=C(N2CC2)C(N2CC2)=CC1=O`, the figures for the IC50 in the assay with EMT6 [1] and in the assay on EMT6 [2] were 0.2 µM and 0.4 µM, respectively. For the same molecule, the IC90 in the assay with EMT6 [3] came out at 1 µM; with EMT6 [4], 1.1 µM. Further, in the assay on Mus musculus [5], the ILS at 0.5 mg/kg was 70%. In the assay with Mus musculus [6], this molecule showed an ILS at 1 mg/kg of 81%. Also, the ILS at 1.25 mg/kg in the assay on Mus musculus [7] was determined as 84%. Also, in the assay on Mus musculus [8], the increase in lifespan (ILS) at 1.5 mg/kg was determined as 86%. Besides, the ILS at 2 mg/kg in the assay on Mus musculus [9] came out at 59%. Also, in the assay on Mus musculus [10], the ILS entry was “Toxic”. Besides, the Survival days is listed as 12.6 in the assay with Mus musculus [11]; 13.4 in the assay on Mus musculus [12]; 13.6 with Mus musculus [13]; 13.8 with Mus musculus [14]; 11.8 in the assay with Mus musculus [15]; 6 in the assay on Mus musculus [16].
Turning to `CCOC(=O)NC1=C(N2CC2)C(=O)C(NC(=O)OCC)=C(N2CC2)C1=O` [DIAZIQUONE], the results for the IC50 with EMT6 [1] and with EMT6 [2] were 7.5 µM and 5 µM, respectively.
For `CCN(CC)C1=CC(=O)C(=O)C=C1N(CC)CC`, the IC50 with EMT6 [1] was 400 µM; with EMT6 [2], 500 µM. The IC90 in the assay on EMT6 [3] and with EMT6 [4] was above 500 µM in each case.
As to `COC1=CC(=O)C(=O)C=C1OC`, the IC50 is above 500 µM in the assay on EMT6 [1] and 500 µM in the assay on EMT6 [2]. For the same molecule, the IC90 in the assay on EMT6 [3] and with EMT6 [4] was above 500 µM in each case.
